# Assay results: paper PMC3545969, “Mutagenicity and antimutagenicity of (−)-hinokinin a trypanosomicidal compound measured by Salmonella microsome and comet assays” (BMC Complementary and Alternative Medicine, 2012)
# Like-named read-outs stand apart in the source and are kept apart here. Marks after values point to notes of the source that are not given here.
# Experiments:
# [1] = tested on: Salmonella typhimurium TA102
# [2] = tested on: Salmonella typhimurium TA98
# rat peripheral blood = tested on: rat peripheral blood; design: method as in PMID 17141387; conditions: cited from earlier work
# V79 cells = experiment: Comet assay, genotoxicity in V79 cells; format: cell-based, Chinese hamster; design: Class 0 / Class 1 / Class 2 / Class 3: unit not given here; conditions: 3 h
# Method: Chinese hamster lung fibroblasts (V79) were kindly supplied by Professor Cólus (Universidade Estadual de Londrina (UEL), Paraná, Brazil). Cells were maintained as monolayers in plastic culture flasks (25 cm^2) in HAM-F10 (Sigma-Aldrich) plus DMEM (Sigma-Aldrich, 1:1) culture medium supplemented with 10%; fetal bovine serum (Nutricell), antibiotics (0.01 mg mL^−1 streptomycin and 0.005 mg mL^−1 penicillin; Sigma-Aldrich) and 2.38 mg mL^−1 Hepes (Sigma-Aldrich), at 37°C in a BOD-type chamber. Under these conditions, the average cell cycle time was 12 h.
# HK was first dissolved in a mixture of methanol (100 μL) and distilled water (900 μL). The final concentration of methanol in the culture was 0.1%;. The choice of concentrations was based on the results of previous experiments with HK [12]. In the experiments, 3 × 10^5 cells (V79) were seeded into tissue-culture flasks, incubated for two cycles (24 h) in complete HAM-F10/DMEM medium, washed with phosphate buffer saline (PBS), and then subjected to one of the following treatments, in serum-free medium, for 3 h. To assess genotoxicity, the cells were treated with each concentration of HK alone, while for antigenotoxicity, they were treated with the mutagen DXR (0.3 μM) in combination with each HK concentration. Positive (DXR) and negative controls were also included in the test. At the end of the treatment, the cells were washed with ice-cold PBS and trypsinized with 200 μL trypsin. After 3 min, the cells were gently resuspended in complete medium and 20 μL of the cell suspension was immediately used for the test.
# The procedures described by Singh et al. were adopted, with minor modifications, as described in detail by Speit and Hartmann and reviewed by Burlinson et al.. Briefly, a microscope slide was covered with a base layer of 1.5%; normal-melting agarose (Invitrogen) and 20 μL of the test cells suspended in 120 μL 0.5%; low-melting agarose (Invitrogen) at 37°C was then spread over the base layer. A coverslip was added and the agarose allowed to solidify at 4°C for 15 min. Next, the coverslip was gently removed and the slides were immersed in freshly prepared lysing solution consisting of 89 mL stock solution (2.5 M NaCl, 100 mM EDTA, 10 mM Tris, pH 10.0, and 1%; sodium lauryl sarcosine), 10 mL DMSO and 1 mL Triton X-100, pH 10.0, at 4°C, for at least 20 h, protected from light. At the end of this period, the slides were transferred to an electrophoresis chamber containing a high pH (>13.0) buffer (300 mM NaOH, 1 mM EDTA) and incubated at 4°C for 20 min to allow the DNA to unwind. A current of 25 V (1.0 V cm^−1, 300 mA) was applied for 20 min. The slides were then submerged in a neutralization buffer (0.4 M Tris - HCl, pH 7.5) for 15 min, dried at room temperature and fixed in 100%; ethanol for 10 min.
# The slides were stained with 100 μL ethidium bromide (20 μg ml^−1) and covered with a coverslip. All the slides in the experiment were coded before analysis. The stained nucleoids were immediately evaluated at 1000x magnification under a Nikon fluorescence microscope fitted with a 515–560 nm excitation filter and a 590 nm barrier filter.
# For each treatment, the extent and distribution of DNA damage indicated by the comet assay were evaluated by examining 100 randomly selected and non-overlapping cells on the slides (i.e. 300 nucleoids per treatment). For each slide, the cells were visually scored and allocated to one of four classes (0, 1, 2 and 3), according to tail size, as follows: class 0, undamaged, no tail; class 1, a short tail whose length was smaller than the diameter of the comet head (nucleus); class 2, tail length between 1 and 2 times the diameter of the head; and class 3, maximally damaged: a long tail measuring more than twice the diameter of the head. The few comets containing no head and those with almost all DNA in the tail, or with a very wide tail, were excluded from the analysis since they may arise from dead cells. […]
# [3] = tested on: Salmonella typhimurium TA100
# [4] = TA 98, − S9, HK 19.5 μg/plate + NOPD 10.0 μg/plate
# [5] = TA 98, − S9, HK 39.0 μg/plate + NOPD 10.0 μg/plate
# [6] = TA 98, − S9, HK 58.5 μg/plate + NOPD 10.0 μg/plate
# [7] = TA 98, − S9, HK 78.0 μg/plate + NOPD 10.0 μg/plate
# [8] = TA 98, − S9, HK […] + NOPD 10.0 μg/plate
compound,measurement,setting,value
"O=C1OC[C@H](Cc2ccc3c(c2)OCO3)[C@H]1Cc1ccc2c(c1)OCO2 [HK, (−)-hinokinin]",Number of revertants(M ± SD)/ plate,"[1]; TA 102, + S9, HK 19.5 μg/plate",363 ± 3 revertants/plate
same,MI (mutagenicity index),"[1]; TA 102, + S9, HK 39.0 μg/plate",0.9
same,Number of revertants(M ± SD)/ plate,"[1]; TA 102, + S9, HK 39.0 μg/plate",354 ± 4 revertants/plate
same,MI (mutagenicity index),"[1]; TA 102, + S9, HK 58.5 μg/plate",1.0
same,Number of revertants(M ± SD)/ plate,"[1]; TA 102, + S9, HK 58.5 μg/plate",398 ± 9 revertants/plate
same,MI (mutagenicity index),"[1]; TA 102, + S9, HK 78.0 μg/plate",1.0
same,Number of revertants(M ± SD)/ plate,"[1]; TA 102, + S9, HK 78.0 μg/plate",402 ± 3 revertants/plate
same,Number of revertants(M ± SD)/ plate,"[1]; TA 102, - S9, HK 19.5 μg/plate",231 ± 8 revertants/plate
same,MI (mutagenicity index),"[1]; TA 102, - S9, HK 39.0 μg/plate",0.9
same,Number of revertants(M ± SD)/ plate,"[1]; TA 102, - S9, HK 39.0 μg/plate",213 ± 4 revertants/plate
same,MI (mutagenicity index),"[1]; TA 102, - S9, HK 58.5 μg/plate",0.8
same,Number of revertants(M ± SD)/ plate,"[1]; TA 102, - S9, HK 58.5 μg/plate",201 ± 6 revertants/plate
same,MI (mutagenicity index),"[1]; TA 102, - S9, HK 78.0 μg/plate",0.8
same,Number of revertants(M ± SD)/ plate,"[1]; TA 102, - S9, HK 78.0 μg/plate",186 ± 2 revertants/plate
same,% inhibition,"[2]; TA 98, + S9, HK 19.5 μg/plate + B[a]P 1.0 μg/plate",32** %
same,% inhibition,"[2]; TA 98, + S9, HK 39.0 μg/plate + B[a]P 1.0 μg/plate",36** %
same,% inhibition,"[2]; TA 98, + S9, HK 58.5 μg/plate + B[a]P 1.0 μg/plate",52*** %
same,% inhibition,"[2]; TA 98, + S9, HK 78.0 μg/plate + B[a]P 1.0 μg/plate",59*** %
same,% inhibition,"[2]; TA 98, + S9, HK […] + B[a]P 1.0 μg/plate",31** %
same,% inhibition,[2]; [4],21* %
same,Number of revertants(M ± SD)/ plate,[2]; [4],507 + 15 revertants/plate
same,% inhibition,[2]; [5],26** %
same,Number of revertants(M ± SD)/ plate,[2]; [5],477 + 5 revertants/plate
same,% inhibition,[2]; [6],19* %
same,Number of revertants(M ± SD)/ plate,[2]; [6],521 + 9 revertants/plate
same,% inhibition,[2]; [7],25** %
same,Number of revertants(M ± SD)/ plate,[2]; [7],480 + 16 revertants/plate
same,% inhibition,[2]; [8],18* %
same,Number of revertants(M ± SD)/ plate,[2]; [8],525 + 7 revertants/plate
same,"effect on chromosome damage induced by DXR, micronucleus test",rat peripheral blood,effective in reducing the chromosome damage induced by DXR
same,"genotoxic effect, micronucleus test",rat peripheral blood,no genotoxic effect
same,Class 0,V79 cells; HK 0.5 μM alone,81.6 ± 4.9
same,Class 1,V79 cells; HK 0.5 μM alone,12.3± 3.5
same,Class 2,V79 cells; HK 0.5 μM alone,4.3 ± 3.7
same,Score,V79 cells; HK 0.5 μM alone,26.0 ± 13.2
same,Class 0,V79 cells; HK 1.0 μM alone,87.0 ± 5.1
same,Class 1,V79 cells; HK 1.0 μM alone,11.0 ± 5.2
same,Class 2,V79 cells; HK 1.0 μM alone,1.3 ± 0.5
same,Class 3,V79 cells; HK 1.0 μM alone,0
same,Score,V79 cells; HK 1.0 μM alone,13.0 ± 5.0
same,Class 0,V79 cells; HK 2.0 μM alone,83.0 ± 3.7
same,Class 1,V79 cells; HK 2.0 μM alone,14.0 ± 2.5
same,Class 2,V79 cells; HK 2.0 μM alone,2.0 ± 2.0
same,Class 3,V79 cells; HK 2.0 μM alone,0
same,Score,V79 cells; HK 2.0 μM alone,18.0 ± 5.0
same,Class 0,V79 cells; HK 32 μM alone,89.0 ± 2.0
same,Class 1,V79 cells; HK 32 μM alone,10.0 ± 2.0
same,Class 2,V79 cells; HK 32 μM alone,0.3 ± 0.5
same,Class 3,V79 cells; HK 32 μM alone,0.6 ± 1.1
same,Score,V79 cells; HK 32 μM alone,9.6 ± 2.3
same,Class 0,V79 cells; HK 64 μM alone,88.0 ± 3.6
same,Class 1,V79 cells; HK 64 μM alone,11.0 ± 4.0
same,Class 2,V79 cells; HK 64 μM alone,0.6 ± 1.0
same,Class 3,V79 cells; HK 64 μM alone,1.0 ± 1.0
same,Score,V79 cells; HK 64 μM alone,13.0 ± 3.4
same,MI (mutagenicity index),"[3]; TA 100, + S9, HK 19.5 μg/plate",1.0
same,Number of revertants(M ± SD)/ plate,"[3]; TA 100, + S9, HK 19.5 μg/plate",128 ± 6 revertants/plate
same,MI (mutagenicity index),"[3]; TA 100, + S9, HK 39.0 μg/plate",0.9
same,Number of revertants(M ± SD)/ plate,"[3]; TA 100, + S9, HK 39.0 μg/plate",115 ± 8 revertants/plate
same,MI (mutagenicity index),"[3]; TA 100, + S9, HK 58.5 μg/plate",1.1
same,Number of revertants(M ± SD)/ plate,"[3]; TA 100, + S9, HK 58.5 μg/plate",134 ± 2 revertants/plate
same,MI (mutagenicity index),"[3]; TA 100, + S9, HK 78.0 μg/plate",1.0
same,Number of revertants(M ± SD)/ plate,"[3]; TA 100, + S9, HK 78.0 μg/plate",120 ± 8 revertants/plate
same,MI (mutagenicity index),"[3]; TA 100, - S9, HK 19.5 μg/plate",1.0
same,Number of revertants(M ± SD)/ plate,"[3]; TA 100, - S9, HK 19.5 μg/plate",129 ± 6 revertants/plate
same,MI (mutagenicity index),"[3]; TA 100, - S9, HK 39.0 μg/plate",1.0
same,Number of revertants(M ± SD)/ plate,"[3]; TA 100, - S9, HK 39.0 μg/plate",134 ± 5 revertants/plate
same,MI (mutagenicity index),"[3]; TA 100, - S9, HK 58.5 μg/plate",0.8
same,Number of revertants(M ± SD)/ plate,"[3]; TA 100, - S9, HK 58.5 μg/plate",112 ± 3 revertants/plate
same,MI (mutagenicity index),"[3]; TA 100, - S9, HK 78.0 μg/plate",1.1
same,Number of revertants(M ± SD)/ plate,"[3]; TA 100, - S9, HK 78.0 μg/plate",140 ± 9 revertants/plate
